Data on one compound can be found in patent US20260315483A1, “HETEROCYCLIC COMPOUNDS AS TRIGGERING RECEPTOR EXPRESSED ON MYELOID CELLS 2 AGONISTS AND METHODS OF USE” (VIGIL NEUROSCIENCE, INC., priority 2023, published 2026).

The structures appear in SMILES notation.

This test concerns the target T1, human TREM2 (Homo sapiens, UniProt Q9NZC2).
T1 construct: expressed in transfected cells; host or cells: HEK293T-hTREM2 cells (HEK cell line expressing human TREM2 and DAP12)
Kind of test: In vitro measurement of TREM2 activity using cellular phosphorylation of spleen tyrosine kinase (Syk), AlphaLisa, HEK293T-hTREM2 cells. The format is cell-based. To be noted: HEK293T cells expressing human TREM2 and DAP12, 45 min at room temperature, Table D-2. The procedure:
In Vitro Measurement of Triggering Receptor Expressed on Myeloid Cells 2 Activity Using Cellular Phosphorylation of Spleen Tyrosine Kinase (“Syk”) Assays
Measurement of TREM2 agonist potency was done using a HEK cell line expressing human TREM2 and DAP12 (HEK293T-hTREM2 cells). Binding of small molecules to, and activation of, TREM2 increases the phosphorylation of Syk. The resultant levels of Syk phosphorylation are measured using a commercial AlphaLisa reagent kit. To perform the assay, HEK-hTREM2 cells were plated at 14,000 cells per well in a 384 well plate, in 25 μL of complete growth media and incubated at 37° C., 5% CO2 for 20-24 hours.
Prior to the assay, test compounds were diluted in the 384 well plates in assay buffer and allowed to equilibrate for 30 minutes. Growth media was removed from cell plates by inversion on blotting paper, and 25 μL of test articles in assay buffer was added to cells. Cells were incubated for 45 minutes at room temperature. After 45 minutes, assay buffer was removed and 10 μL of lysis buffer was added. Plates were shaken for 20 minutes at 350 RPM at room temperature. After complete lysis, AlphaLisa reagents were added to the lysate, and fluourescence intensity was measured using a Perkin Elmer Envision plate reader. Intensities were used to generate a standard curve, and % activation was calculated. Curve fitting was performed using Prism v9 software, log(agonist) vs response—variable slope (four parameters), and EC50s were calculated from the curve fit.
The results presented in Tables D and D-2 have been generated with the in vitro assay described above. This assay may be used to test any of the compounds described herein to assess and characterize a compound's ability to act as an agonist of TREM2.
A general note: Bead proximity is the source of the signal in Alpha formats.

T1 sequence (Q9NZC2 19-230): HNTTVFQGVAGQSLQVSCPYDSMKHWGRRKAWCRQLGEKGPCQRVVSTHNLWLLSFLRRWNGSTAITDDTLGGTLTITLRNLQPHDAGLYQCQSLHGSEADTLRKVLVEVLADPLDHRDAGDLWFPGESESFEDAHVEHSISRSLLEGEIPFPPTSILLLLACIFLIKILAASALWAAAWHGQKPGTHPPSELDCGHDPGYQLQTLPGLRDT
T1 sequence (O43914 22-113 partner): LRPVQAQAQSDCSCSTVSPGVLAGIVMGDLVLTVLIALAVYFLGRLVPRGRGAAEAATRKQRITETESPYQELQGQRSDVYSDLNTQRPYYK

Broadly, the EC50 is the concentration that produces a half-maximal response. Read a low EC50 as a more potent agent. As for `C[C@@H]1CN(c2cc3c(c(-c4ccc(C(F)(F)F)cc4F)n2)CN(c2ccn(C)n2)C3=O)C[C@H](c2cnn(C3CC3)c2)O1` [compound 228, 6-((2S,6R)-2-(1-cyclopropyl-1H-pyrazol-4-yl)-6-methylmorpholino)-4-(2-fluoro-4-(trifluoromethyl)phenyl)-2-(1-methyl-1H-pyrazol-3-yl)-2,3-dihydro-1H-pyrrolo[3,4-c]pyridin-1-one], the EC50 was ≤ 50 nM.
